Test results: patent EP4685149A1, “NOVEL COMPOUND AS ENDOTHELIAL TO MESENCHYMAL TRANSITION (ENDMT) INHIBITOR, AND PHARMACEUTICAL COMPOSITION COMPRISING SAME” (Korea Institute of Radiological & Medical Sciences, priority 2023, dated 2024)
Where two headings read alike, the source gives them in different places.

Test system: human vascular endothelial cell lines
Assay: Inhibition of radiation-induced endothelial cell transition (EndMT), phalloidin immunofluorescence staining
Assay type: cell-based
Conditions: 10 uM test substance 1 hour before 10 Gy irradiation, 72 hours after irradiation, relative ratio with IR group (10 Gy alone) as 100%; for activity at 10 µM: Homo sapiens, Endothelial cell, light or radiation study
Method: Test substances (Examples 1 to 45) were treated with a 10 mM DMSO solution at a ratio of 1 µL per 1 mL of cell culture medium to a final concentration of 10 uM, and the test substances were treated 1 hour before irradiation on human vascular endothelial cell lines (Promocell, Germany), and then, it was irradiated at an intensity of 10 Gy. 72 hours after irradiation, the human vascular endothelial cell lines were fixed with 10% formalin, and the experiment was conducted according to the manufacturer's method using phalloidin (Invitrogen, USA) to confirm the cytoskeleton filaments that increase during fibrosis. Phalloidin is a protein that binds to the actin of cytoskeleton filaments, and phalloidin conjugated with FITC fluorescent substance made the cytoskeleton filaments appear green when observed under a microscope.
After treatment with the test substance, the area, length and density of phalloidin were measured by using a confocal microscope, and the relative ratio was expressed with the irradiated group (IR group) that was irradiated with 10 Gy alone as 100% (Table 1).

O[C@@H]1[C@H](O)CS[C@H]1n1cnc2c(N[C@@H]3CCc4cc(C(F)(F)F)ccc43)nc(Cl)nc21 [Example 28, (2R,3R,4S)-2-[2-chloro-6-[[(1R)-5-(trifluoromethyl)indan-1-yl]amino]purin-9-yl]tetrahydrothiophene-3,4-diol]
activity at 10 µM (read-out: Palloidin Area): 50 to 80%
activity at 10 µM (read-out: Palloidin Intensity): 50 to 80%
activity at 10 µM (read-out: Palloidin Length): > 80%

COc1ccc2c(c1)CC[C@H]2Nc1nc(Cl)nc2c1ncn2[C@@H]1SC[C@@H](O)[C@H]1O [Example 12, (2R,3R,4S)-2-[2-chloro-6-[[(1R)-5-methoxyindan-1-yl]amino]purin-9-yl]tetrahydrothiophene-3,4-diol]
activity at 10 µM (read-out: Palloidin Area): > 80%
activity at 10 µM (read-out: Palloidin Intensity): > 80%
activity at 10 µM (read-out: Palloidin Length): > 80%

O[C@@H]1[C@H](O)CS[C@H]1n1cnc2c(N[C@@H]3CCc4ccccc43)nc(Cl)nc21 [Example 9, (2R,3R,4S)-2-[2-chloro-6-[[(1R)-indan-1-yl]amino]purin-9-yl]tetrahydrothiophene-3,4-diol]
activity at 10 µM (read-out: Palloidin Area): 50 to 80%
activity at 10 µM (read-out: Palloidin Intensity): 50 to 80%
activity at 10 µM (read-out: Palloidin Length): 50 to 80%

O[C@@H]1[C@H](O)CS[C@H]1n1cnc2c(N[C@H]3CCc4ccccc43)nc(Cl)nc21 [Example 10, (2R,3R,4S)-2-[2-chloro-6-[[(1S)-indan-1-yl]amino]purin-9-yl]tetrahydrothiophene-3,4-diol]
activity at 10 µM (read-out: Palloidin Area): > 80%
activity at 10 µM (read-out: Palloidin Intensity): > 80%
activity at 10 µM (read-out: Palloidin Length): > 80%

O[C@@H]1[C@H](O)CS[C@H]1n1cnc2c(N[C@@H]3CCc4ccccc43)nc(I)nc21 [Example 44, (2R,3R,4S)-2-(6-(((R)-2,3-dihydro-1H-inden-1-yl)amino)-2-iodo-9H-purin-9-yl)tetrahydrothiophene-3,4-diol]
activity at 10 µM (read-out: Palloidin Area): 20 to 50%
activity at 10 µM (read-out: Palloidin Intensity): 20 to 50%
activity at 10 µM (read-out: Palloidin Length): 20 to 50%

O[C@@H]1[C@H](O)CS[C@H]1n1cnc2c(N[C@@H]3Cc4ccccc43)nc(Cl)nc21 [Example 41, (2R,3R,4S)-2-(6-(((R)-bicyclo[4.2.0]octa-1(6),2,4-trien-7-yl)amino)-2-chloro-9H-purin-9-yl)tetrahydrothiophene-3,4-diol]
activity at 10 µM (read-out: Palloidin Area): > 80%
activity at 10 µM (read-out: Palloidin Intensity): 50 to 80%
activity at 10 µM (read-out: Palloidin Length): > 80%

N#Cc1ccc2c(c1)CC[C@H]2Nc1nc(Cl)nc2c1ncn2[C@@H]1SC[C@@H](O)[C@H]1O [Example 29, (1R)-1-[[2-chloro-9-[(2R,3R,4S)-3,4-dihydroxytetrahydrothiophen-2-yl]purin-6-yl]amino]indane-5-carbonitrile]
activity at 10 µM (read-out: Palloidin Area): 50 to 80%
activity at 10 µM (read-out: Palloidin Intensity): 50 to 80%
activity at 10 µM (read-out: Palloidin Length): > 80%

CCCC#Cc1nc(N[C@@H]2CCc3ccccc32)c2ncn([C@@H]3SC[C@@H](O)[C@H]3O)c2n1 [Example 5, (2R,3R,4S)-2-[6-[[(1R)-indan-1-yl]amino]-2-pent-1-ynyl-purin-9-yl]tetrahydrothiophene-3,4-diol]
activity at 10 µM (read-out: Palloidin Area): 50 to 80%
activity at 10 µM (read-out: Palloidin Intensity): 50 to 80%
activity at 10 µM (read-out: Palloidin Length): 50 to 80%

COc1ccc2c(c1)[C@H](Nc1nc(Cl)nc3c1ncn3[C@@H]1SC[C@@H](O)[C@H]1O)CC2 [Example 13, (2R,3R,4S)-2-[2-chloro-6-[[(1R)-6-methoxyindan-1-yl]amino]purin-9-yl]tetrahydrothiophene-3,4-diol]
activity at 10 µM (read-out: Palloidin Area): 50 to 80%
activity at 10 µM (read-out: Palloidin Intensity): 50 to 80%
activity at 10 µM (read-out: Palloidin Length): 50 to 80%

O[C@@H]1[C@H](O)CS[C@H]1n1cnc2c(N[C@@H]3CCc4ccccc43)ncnc21 [Example 45, (2R,3R,4S)-2-(6-(((R)-2,3-dihydro-1H-inden-1-yl)amino)-9H-purin-9-yl)tetrahydrothiophene-3,4-diol]
activity at 10 µM (read-out: Palloidin Area): > 80%
activity at 10 µM (read-out: Palloidin Intensity): > 80%
activity at 10 µM (read-out: Palloidin Length): > 80%

O[C@@H]1[C@H](O)CS[C@H]1n1cnc2c(N[C@@H]3CCc4c(F)cccc43)nc(Cl)nc21 [Example 15, (2R,3R,4S)-2-[2-chloro-6-[[(1R)-4-fluoroindan-1-yl]amino]purin-9-yl]tetrahydrothiophene-3,4-diol]
activity at 10 µM (read-out: Palloidin Area): < 20%
activity at 10 µM (read-out: Palloidin Intensity): < 20%
activity at 10 µM (read-out: Palloidin Length): < 20%

NC(=O)c1ccc2c(c1)CC[C@H]2Nc1nc(Cl)nc2c1ncn2[C@@H]1SC[C@@H](O)[C@H]1O [Example 34, (R)-1-((2-chloro-9-((2R,3R,4S)-3,4-dihydroxytetrahydrothiophen-2-yl)-9H-purin-6-yl)amino)-2,3-dihydro-1H-indene-5-carboxamide]
Palloidin Length: + +
activity at 10 µM (read-out: Palloidin Area): > 80%
activity at 10 µM (read-out: Palloidin Intensity): > 80%

COC(=O)c1cccc2c1CC[C@H]2Nc1nc(Cl)nc2c1ncn2[C@@H]1SC[C@@H](O)[C@H]1O [Example 30, Methyl (R)-1-((2-chloro-9-((2R,3R,4S)-3,4-dihydroxytetrahydrothiophen-2-yl)-9H-purin-6-yl)amino)-2,3-dihydro-1H-indene-4-carboxylate]
activity at 10 µM (read-out: Palloidin Area): > 80%
activity at 10 µM (read-out: Palloidin Intensity): > 80%
activity at 10 µM (read-out: Palloidin Length): > 80%

CCC#Cc1nc(N[C@@H]2CCc3ccccc32)c2ncn([C@@H]3SC[C@@H](O)[C@H]3O)c2n1 [Example 3, (2R,3R,4S)-2-[2-but-1-ynyl-6-[[(1R)-indan-1-yl]amino]purin-9-yl]tetrahydrothiophene-3,4-diol]
activity at 10 µM (read-out: Palloidin Area): > 80%
activity at 10 µM (read-out: Palloidin Intensity): > 80%
activity at 10 µM (read-out: Palloidin Length): > 80%

O[C@@H]1[C@H](O)CS[C@H]1n1cnc2c(N[C@@H]3CCc4c3cccc4C(F)(F)F)nc(Cl)nc21 [Example 23, (2R,3R,4S)-2-[2-chloro-6-[[(1R)-4-(trifluoromethyl)indan-1-yl]amino]purin-9-yl]tetrahydrothiophene-3,4-diol]
activity at 10 µM (read-out: Palloidin Area): > 80%
activity at 10 µM (read-out: Palloidin Intensity): > 80%
activity at 10 µM (read-out: Palloidin Length): > 80%

O[C@@H]1[C@H](O)CS[C@H]1n1cnc2c(NC3Cc4ccccc4C3)nc(Cl)nc21 [Example 7, (2R,3R,4S)-2-[2-chloro-6-(indan-2-ylamino)purin-9-yl]tetrahydrothiophene-3,4-diol]
activity at 10 µM (read-out: Palloidin Area): > 80%
activity at 10 µM (read-out: Palloidin Intensity): > 80%
activity at 10 µM (read-out: Palloidin Length): > 80%

O[C@@H]1[C@H](O)CS[C@H]1n1cnc2c(NC3CCc4ccccc4CC3)nc(Cl)nc21 [Example 43, (2R,3R,4S)-2-(2-chloro-6-((6,7,8,9-tetrahydro-5H-benzo[7]annulen-7-yl)amino)-9H-purin-9-yl)tetrahydrothiophene-3,4-diol]
activity at 10 µM (read-out: Palloidin Area): > 80%
activity at 10 µM (read-out: Palloidin Intensity): > 80%
activity at 10 µM (read-out: Palloidin Length): > 80%

CC#Cc1nc(N[C@@H]2CCc3ccccc32)c2ncn([C@@H]3SC[C@@H](O)[C@H]3O)c2n1 [Example 1, (2R,3R,4S)-2-[6-[[(1R)-indan-1-yl]amino]-2-prop-1-ynyl-purin-9-yl]tetrahydrothiophene-3,4-diol]
activity at 10 µM (read-out: Palloidin Area): 50 to 80%
activity at 10 µM (read-out: Palloidin Intensity): 50 to 80%
activity at 10 µM (read-out: Palloidin Length): > 80%

NC(=O)c1cccc2c1CC[C@H]2Nc1nc(Cl)nc2c1ncn2[C@@H]1SC[C@@H](O)[C@H]1O [Example 25, (R)-1-((2-chloro-9-((2R,3R,4S)-3,4-dihydroxytetrahydrothiophen-2-yl)-9H-purin-6-yl)amino)-2,3-dihydro-1H-indene-4-carboxamide]
activity at 10 µM (read-out: Palloidin Area): > 80%
activity at 10 µM (read-out: Palloidin Intensity): > 80%
activity at 10 µM (read-out: Palloidin Length): > 80%

O[C@@H]1[C@H](O)CS[C@H]1n1cnc2c(N[C@H]3CCCc4ccccc43)nc(Cl)nc21 [Example 40, (2R,3R,4S)-2-(2-chloro-6-(((S)-1,2,3,4-tetrahydronaphthalen-1-yl)amino)-9H-purin-9-yl)tetrahydrothiophene-3,4-diol]
activity at 10 µM (read-out: Palloidin Area): > 80%
activity at 10 µM (read-out: Palloidin Intensity): > 80%
activity at 10 µM (read-out: Palloidin Length): > 80%
